Columns and labels:
blackgrass = experiment: Test A postemergence; assay type: in vivo, Alopecurus myosuroides; conditions: 0 to 100 scale, 0 no effect, 100 complete control
From the text: (§1) Seeds of plant species selected from barnyardgrass (Echinochloa crus-galli), kochia (Kochia scoparia), ragweed (common ragweed, Ambrosia elatior), Italian ryegrass (Lolium multiflorum), large (Lg) crabgrass (Digitaria sanguinalis), giant foxtail (Setaria faberii), morningglory (Ipomoea spp.), pigweed (Amaranthus retroflexus), velvetleaf (Abutilon theophrasti), wheat (Triticum aestivum), and corn (Zea mays) were planted into a blend of loam soil and sand and treated preemergence with a directed soil spray using test chemicals formulated in a non-phytotoxic solvent mixture which included a surfactant.
(§2) At the same time, plants selected from these crop and weed species and also blackgrass (Alopecurus myosuroides), and galium (catchweed bedstraw, Galium aparine) were planted in pots containing the same blend of loam soil and sand and treated with postemergence applications of test chemicals formulated in the same manner. Plants ranged in height from 2 to 10 cm and were in the one- to two-leaf stage for the postemergence treatment. Treated plants and untreated controls were maintained in a greenhouse for approximately 10 days, after which time all treated plants were compared to untreated controls and visually evaluated for injury. Plant response ratings, summarized in Table A, are based on a 0 to 100 scale where 0 is no effect and 100 is complete control. A dash (-) response means no test result.

giant foxtail [1] = experiment: Test A preemergence; assay type: in vivo, Setaria faberii; conditions: 0 to 100 scale, 0 no effect, 100 complete control, approx. 10 days
Summary of the method: (§3)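 Compounds in non-phytotoxic solvent with surfactant applied as soil spray preemergence, or postemergence to plants 2-10 cm at one- to two-leaf stage, in loam/sand. After approximately 10 days in greenhouse, injury rated visually versus untreated controls, 0 (no effect) to 100 (complete control).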

giant foxtail [2] = experiment: Test A postemergence; assay type: in vivo, Setaria faberii
Summary of the method: as §3

ragweed [3] = experiment: Test A postemergence; assay type: in vivo, Ambrosia elatior
From the text: as §1, §2

pigweed [4] = experiment: Test A postemergence; assay type: in vivo, Amaranthus retroflexus
Summary of the method: as §3

kochia [5] = experiment: Test A postemergence; assay type: in vivo, Kochia scoparia
From the text: as §1, §2

wheat = experiment: Test A postemergence; assay type: in vivo, Triticum aestivum
Summary of the method: as §3

Italian ryegrass [6] = experiment: Test A postemergence; assay type: in vivo, Lolium multiflorum
From the text: as §1, §2

galium = experiment: Test A postemergence; assay type: in vivo, Galium aparine
From the text: as §1, §2

corn = experiment: Test A postemergence; assay type: in vivo, Zea mays; conditions: 0 to 100 scale, 0 no effect, 100 complete control
Summary of the method: as §3

pigweed [7] = experiment: Test A preemergence; assay type: in vivo, Amaranthus retroflexus; conditions: 0 to 100 scale, 0 no effect, 100 complete control, approx. 10 days
Summary of the method: as §3

kochia [8] = experiment: Test A preemergence; assay type: in vivo, Kochia scoparia; conditions: 0 to 100 scale, 0 no effect, 100 complete control, approx. 10 days
From the text: as §1, §2

barnyardgrass [9] = experiment: Test A postemergence; assay type: in vivo, Echinochloa crus-galli; conditions: 0 to 100 scale, 0 no effect, 100 complete control
Summary of the method: as §3

ragweed [10] = experiment: Test A preemergence; assay type: in vivo, Ambrosia elatior; conditions: 0 to 100 scale, 0 no effect, 100 complete control, approx. 10 days
From the text: as §1, §2

Italian ryegrass [11] = experiment: Test A preemergence; assay type: in vivo, Lolium multiflorum; conditions: 0 to 100 scale, 0 no effect, 100 complete control, approx. 10 days
From the text: as §1, §2

barnyardgrass [12] = experiment: Test A preemergence; assay type: in vivo, Echinochloa crus-galli; conditions: 0 to 100 scale, 0 no effect, 100 complete control, approx. 10 days
Summary of the method: as §3

[13] = 500 g ai/ha, 0 to 100 scale where 0 is no effect and 100 is complete control
[14] = 1000 g ai/ha, 0 to 100 scale, 0 no effect, 100 complete control

| SMILES | Plant response rating, Blackgrass (blackgrass; 1000 g ai/ha) | Foxtail, Giant plant response rating (giant foxtail [1]; 1000 g ai/ha) | Plant response rating, Foxtail, Giant (giant foxtail [2]; [14]) | Plant response rating, Ragweed (ragweed [3]; [14]) | Plant response rating, Pigweed (pigweed [4]; [14]) | Plant response rating, Kochia (kochia [5]; [14]) | Plant response rating, Wheat (wheat; [14]) | Plant response rating, Ryegrass, Italian (Italian ryegrass [6]; [14]) | Plant response rating, Galium (galium; [14]) | Plant response rating, Corn (corn; 1000 g ai/ha) | Pigweed plant response rating (pigweed [7]; 1000 g ai/ha) | Kochia plant response rating (kochia [8]; 1000 g ai/ha) | Plant response rating, Barnyardgrass (barnyardgrass [9]; 1000 g ai/ha) | Ragweed plant response rating (ragweed [10]; 1000 g ai/ha) | Ryegrass, Italian plant response rating (Italian ryegrass [11]; 1000 g ai/ha) | Barnyardgrass plant response rating (barnyardgrass [12]; 1000 g ai/ha) | other results |
| --- | --- | --- | --- | --- | --- | --- | --- | --- | --- | --- | --- | --- | --- | --- | --- | --- | --- |
| Oc1cccc(Oc2ncc(Cl)cn2)c1-n1cc(Br)cn1 [Compound 68] | – | – | – | – | – | – | – | – | – | – | – | – | – | – | – | – | Plant response rating, Blackgrass (blackgrass; 500 g ai/ha): 0; Foxtail, Giant plant response rating (giant foxtail [1]; 500 g ai/ha): 0; Plant response rating, Foxtail, Giant (giant foxtail [2]; [13]): 0; Plant response rating, Ragweed (ragweed [3]; [13]): 0; Plant response rating, Pigweed (pigweed [4]; [13]): 0; Plant response rating, Kochia (kochia [5]; [13]): 0; Plant response rating, Wheat (wheat; [13]): 0; Plant response rating, Ryegrass, Italian (Italian ryegrass [6]; [13]): 0; Plant response rating, Galium (galium; [13]): 0; Plant response rating, Corn (corn; 500 g ai/ha): 0; Pigweed plant response rating (pigweed [7]; 500 g ai/ha): 30; Kochia plant response rating (kochia [8]; 500 g ai/ha): 0; Plant response rating, Barnyardgrass (barnyardgrass [9]; 500 g ai/ha): 0; Ragweed plant response rating (ragweed [10]; 500 g ai/ha): 0; Ryegrass, Italian plant response rating (Italian ryegrass [11]; 500 g ai/ha): 0; Barnyardgrass plant response rating (barnyardgrass [12]; 500 g ai/ha): 0 |
| CN(C)C(=O)c1cccc(Oc2ncc(Cl)cn2)c1-n1cc(C(F)(F)F)cn1 [Compound 255] | 10 | 10 | 10 | 10 | 30 | 50 | 0 | 0 | 10 | 0 | 60 | 70 | 10 | 20 | 20 | 10 | – |
| CNC(=O)c1cccc(Oc2ncc(Cl)cn2)c1-n1cc(C(F)(F)F)cn1 [Compound 256] | 10 | 30 | 10 | 10 | 10 | 30 | 0 | 0 | 30 | 0 | 30 | 70 | 10 | 30 | 20 | 20 | – |

Reference: patent US9695155B2, “Herbicidal substituted pyrimidinyloxy benzene compounds” (E. I. DU PONT DE NEMOURS AND COMPANY, priority 2013, dated 2017)
